Counter-ions that a name gives are not always drawn. Like-named read-outs stand apart in the source and are kept apart here.
Tests used:
[1] = target: T1, recombinant human MAO-A (Homo sapiens, UniProt P21397); test: Cell-free Fluorescent Monoamine Oxidase A&B Detection Assay, MAO-A; assay type: biochemical
T1 sequence (P21397 1-527): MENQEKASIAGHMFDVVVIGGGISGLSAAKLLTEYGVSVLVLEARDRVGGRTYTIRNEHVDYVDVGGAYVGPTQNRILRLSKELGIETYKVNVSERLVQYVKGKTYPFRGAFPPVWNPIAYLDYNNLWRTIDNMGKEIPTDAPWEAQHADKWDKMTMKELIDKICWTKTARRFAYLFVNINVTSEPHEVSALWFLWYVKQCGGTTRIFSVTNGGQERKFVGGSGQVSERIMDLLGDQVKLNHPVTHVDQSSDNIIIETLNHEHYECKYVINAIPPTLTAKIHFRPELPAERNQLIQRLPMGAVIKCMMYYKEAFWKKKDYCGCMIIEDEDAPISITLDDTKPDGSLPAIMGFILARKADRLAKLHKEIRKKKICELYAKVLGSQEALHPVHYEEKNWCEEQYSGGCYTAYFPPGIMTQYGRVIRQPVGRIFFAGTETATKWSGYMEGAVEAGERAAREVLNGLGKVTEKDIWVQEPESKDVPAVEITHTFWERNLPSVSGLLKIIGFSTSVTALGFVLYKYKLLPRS
Method: (§1) The assay was repeated to confirm data.
(§2) MAO B specific inhibitory activity and selectivity over MAO A is assayed using a commercial kit [Fluoro MAO A and B detection kit (Cell Technology Inc™)]. This kit uses a non-fluorescent detection reagent to measure H2O2 released from the conversion of an MAO A and MAO B substrate specific to its aldehyde. Furthermore, H2O2 oxidizes the detection reagent in a 1:1 stoichiometry to produce a fluorescent product (resorufin). […] This information is then provided to the medicinal chemists to help direct synthesis of subsequent iterations.

[2] = target: T2, recombinant human MAO-B (Homo sapiens, UniProt P27338); test: Cell-free Fluorescent Monoamine Oxidase A&B Detection Assay, MAO-B; assay type: biochemical
T2 sequence (P27338 1-520): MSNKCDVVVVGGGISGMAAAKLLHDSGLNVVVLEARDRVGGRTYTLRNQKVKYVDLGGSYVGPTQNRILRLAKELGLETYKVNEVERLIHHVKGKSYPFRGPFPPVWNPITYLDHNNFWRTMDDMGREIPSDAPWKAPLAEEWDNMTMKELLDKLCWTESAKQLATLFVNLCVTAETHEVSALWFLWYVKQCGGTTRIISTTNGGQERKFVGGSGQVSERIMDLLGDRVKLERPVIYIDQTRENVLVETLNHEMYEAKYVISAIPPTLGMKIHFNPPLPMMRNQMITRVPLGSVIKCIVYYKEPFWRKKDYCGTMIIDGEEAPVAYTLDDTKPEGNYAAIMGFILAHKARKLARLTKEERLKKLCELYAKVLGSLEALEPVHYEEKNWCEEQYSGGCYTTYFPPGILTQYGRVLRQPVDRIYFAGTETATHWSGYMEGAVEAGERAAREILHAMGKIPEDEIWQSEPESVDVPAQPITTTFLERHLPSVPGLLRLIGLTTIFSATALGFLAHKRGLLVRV
Method: as §1, §2

[3] = cell-free, recombinant human MAO-A, read-out: IC50 MAO-A
[4] = cell-free, recombinant human MAO-A, read-out: IC90 MAO-A
[5] = cell-free, recombinant human MAO-A

Structure (SMILES)	IC90 [2] [µM]	IC50 ([2]; read-out: IC50 MAO-B) [µM]	IC50 MAO-A (μM) [1, 5]	other results
C[C@H](Cc1ccc(OCc2ccc(Cl)cc2)cc1)N(C)CC(=O)O [PS-RG0226, (R)—N-(1-(4-((4-chlorobenzyl)oxy)phenyl)propan-2-yl)-N-methylglycine hydrochloride]	3.42	0.505		IC50 [1, 3]: 198 µM; IC90 [1, 4]: 1260 µM
CN(CC(=O)O)[C@H](CCO)Cc1ccc(OCc2ccccc2)cc1.Cl [PS-AD0179, (S)—N-(1-(4-(benzyloxy)phenyl)-4-hydroxybutan-2-yl)-N-methylglycine]	167	7.82	Does not	
C[C@H](Cc1ccc(OCc2ccccc2Cl)cc1)N(C)CC(=O)O [PS-RG0121, N—((R)-(1-(4-(2-chlorobenzyloxy)phenyl)propan-2-yl)(methyl))glycine hydrochloride]	8.13	0.668	Does not	
C[C@H](Cc1ccc(OCc2ccc(C(=O)O)cc2)cc1)N(C)CC(=O)O.Cl [PS-AD0065 B, (R)-4-((4-(2-((carboxymethyl)(methyl)amino)propyl)phenoxy)methyl)benzoic acid hydrochloride]	149	10	Does not	
C[C@H](Cc1ccc(OCc2ccccn2)cc1)N(C)CC(=O)O.Cl.Cl [PS-RG0217, (R)—N-methyl-N-(1-(4-(pyridin-2-ylmethoxy)phenyl)propan-2-yl)glycine hydrochloride]	577	26.6	Does not	
C[C@H](Cc1ccc(Oc2ccccc2)cc1)N(C)CC(=O)O [PS-RG0008, N—((R)-(1-(4-(phenoxy)phenyl)propan-2-yl)(methyl))glycine hydrochloride]	331	69.2	Does not	
COC(=O)[C@H](Cc1ccc(OCc2ccccc2)cc1)N(C)CC(=O)O.Cl [PS-RG0123, N-Carboxymethyl)-N-(methyl-O-benzyloxytyrosine methyl ester hydrochloride]	354	9.95	Does not	
C[C@H](Cc1ccc(OCc2ccc(C#N)cc2)cc1)N(C)CC(=O)O.Cl [PS-AD0065, (R)—N-(1-(4-((4-cyanobenzyl)oxy)phenyl)propan-2-yl)-N-methylglycine hydrochloride]	81.1	3.28	Does not	
C[C@H](Cc1ccc(OCc2ccccc2)cc1)N(C)CC(=O)O [PS-RG0031A, N—((R)-(1-(4-(benzyloxy)phenyl)propan-2-yl)(methyl))glycine hydrochloride]	30.5	0.908	Does not	
CN(CC(=O)O)[C@H](CO)Cc1ccc(OCc2ccccc2)cc1 [PS-RG0188, (S)—N-(1-(4-(benzyloxy)phenyl)-3-hydroxypropan-2-yl)-N-methylglycine]	19.7	0.738	Does not	
C#CCN(C)CCc1ccccc1 [PS-RG0070]	0.0306			IC50 [1, 3]: 12.5 µM; IC90 [1, 4]: 126 µM; IC50 ([2]; IC50 MAO-B (μM)): 0.0107 µM
C[C@H](Cc1ccc(OCCc2ccccc2)cc1)N(C)CC(=O)O.Cl [PS-RG0247]	619	19.3	Does not	
CN(CC(=O)O)Cc1cc(=O)oc2cc(OCc3ccccc3)ccc12.Cl [PS-RG0098, N-((7-(benzyloxy)-2-oxo-2H-chromen-4-yl)methyl)-N-methylglycine hydrochloride]	4.1	0.799	Does not	
COc1cccc(COc2ccc(C[C@@H](C)N(C)CC(=O)O)cc2)c1 [PS-RG0264, (R)—N-(1-(4-((3-methoxybenzyl)oxy)phenyl)propan-2-yl)-N-methylglycine hydrochloride]	50.5	2.22		IC50 [1, 3]: 359 µM; IC90 [1, 4]: 78500 µM
C#CCN(C)[C@H](C)Cc1ccc(OCc2ccccc2)cc1 [PS-RG0061]	0.023	0.00458		IC50 ([1]; IC50 MAO-A (μM), cell-free, recombinant human MAO-A): 0.163 µM; IC90 ([1]; read-out: IC90 MAO-A (μM)): 1.05 µM
O=C([O-])C1=N[C@@H](Cc2ccccc2)CO1.[Na+] [PS-RG0200]			Does not	IC90 MAO-B (μM) [2]: Does not
C[C@H](Cc1ccc(OCc2cccnc2)cc1)N(C)CC(=O)O.Cl.Cl [PS-RG0218]			Does not	IC90 MAO-B (μM) [2]: Does not
CN(CC(=O)O)c1ccc(CCOCc2ccccc2)cc1.Cl [PS-RG0210]	708	23.6	Does not	
C[C@H](Cc1ccc(OCc2cccc(C#N)c2)cc1)N(C)CC(=O)O.Cl [PS-RG0172, (R)—N-(1-(4-((3-cyanobenzyl)oxy)phenyl)propan-2-yl)-N-methylglycine hydrochloride]	1840	19.7	Does not	
CN(CCc1ccc(OCc2ccccc2)cc1)CC(=O)O.Cl [PS-RG0064, N,N-(4-(Benzyloxy)phenethyl)(methyl)glycine hydrochloride]	252	7.33	Does not	
C[C@H](Cc1ccc(OCc2cc(F)cc(F)c2)cc1)N(C)CC(=O)O.Cl [PS-RG0174, (R)—N-(1-(4-((3,5-difluorobenzyl)oxy)phenyl)propan-2-yl)-N-methylglycine hydrochloride]	6.7	0.794	Does not	
C[C@H](Cc1ccc(OCc2ccccc2C#N)cc1)N(C)CC(=O)O.Cl [PS-RG0171, (R)—N-(1-(4-((2-cyanobenzyl)oxy)phenyl)propan-2-yl)-N-methylglycine hydrochloride]	1080	13	Does not	
C[C@H](Cc1ccc(OCc2ccncc2)cc1)N(C)CC(=O)O.Cl.Cl [PS-AD0068, (R)—N-methyl-N-(1-(4-(pyridin-4-ylmethoxy)phenyl)propan-2-yl)glycine hydrochloride]	506	20	Does not	
CN(CC(=O)O)Cc1ccccc1.Cl [PS-RG0019]			Does not	IC90 MAO-B (μM) [2]: Does not
C[C@H](Cc1ccc(OCc2ccc3ccccc3c2)cc1)N(C)CC(=O)O [PS-RG0227, (R)—N-methyl-N-(1-(4-(naphthalen-2-ylmethoxy)phenyl)propan-2-yl)glycine hydrochloride]	843	11.5		IC50 [1, 3]: 955 µM; IC90 [1, 4]: 63000 µM
O=C(O)c1coc(Cc2ccc(OCc3ccccc3)cc2)n1 [PS-AD0031]			Does not	IC90 MAO-B (μM) [2]: Does not
CN(CCc1ccc(Oc2ccccc2)cc1)CC(=O)O.Cl [PS-RG0058]			Does not	IC90 MAO-B (μM) [2]: Does not
C[C@H](Cc1ccc(OCc2cccc(F)c2)cc1)N(C)CC(=O)O.Cl [PS-RG0173, (R)—N-(1-(4-((3-fluorobenzyl)oxy)phenyl)propan-2-yl)-N-methylglycine hydrochloride]	13.5	0.785	Does not	
C[C@H](Cc1ccc(OCc2cnc3ncccn23)cc1)N(C)CC(=O)O.Cl [PS-AD0223]			Does not	IC90 MAO-B (μM) [2]: Does not
COC(=O)c1ccc(COc2ccc(C[C@@H](C)N(C)CC(=O)O)cc2)cc1.Cl [PS-RG0246, (R)—N-(1-(4-((4-(methoxycarbonyl)benzyl)oxy)phenyl)propan-2-yl)-N-methylglycine hydrochloride]	10600	361	Does not	

— patent publication US10196345B2, “MAO-B selective inhibitor compounds, pharmaceutical compositions thereof and uses thereof” (The University of British Columbia, priority 2013, dated 2019)
